“Also recorded” adds a separate entry of the source.
Legend:
Assay type in all cases: cell-based, human
[1] = system: permeabilized mutant HEK293ΔNDUFS2 cells; assay: Oxygen consumption of permeabilized mutant cells, Oroboros O2k respirometry
Protocol: Mitochondrial respiration measurements with Oroboros O2K respirometry. Oxygen consumption rate (OCR) of strains was determined using protocols described elsewhere (Alleman R J, et al. Am J Physiol Heart Circ Physiol 2016, 310(10):H1360-1370; Goswami I, et al. Biophys J 2018, 114(12):2951-2964). Briefly, the parent type HEK293 and the mutant HEK293ΔNDUFS2 grown for eight days in 225 cm^2 flasks for 75-80% confluence were harvested by treatment with trypsin-EDTA, centrifuged at 300×g for 3 min, and resuspended in assay buffer Z (105 mM 2-(N-Morpholino)ethanesulfonic acid potassium salt, 30 mM KCl, 10 mM KH2PO4, 5 mM MgCl2-6H2O, 0.5 mg/mL bovine serum albumin, 20 mM creatine, 1 mM EGTA [pH 7.1] in dH2O). Approximately one million cells in 2 ml volumes were then introduced into the Oroboros O2K respiration chamber, which is equipped with calibrated oxygen measuring polarographic sensors. The oxygen signals were allowed to stabilize before closing the chamber to the outside air while chamber temperature was maintained at 37° C. Subsequently, the OCR was recorded after injection with none (basal), 2 mM of malate plus 10 mM glutamate (G/M), 5 mM of adenosine diphosphate (ADP), and 1.0 μM protonophore Carbonyl cyanide 4-(trifluoromethoxy)phenylhydrazone (FCCP).
Cell growth and metabolism. To measure the cell proliferation of parent HEK293 and mutant HEK293ΔNDUFS2, aliquots of 50,000 cells were introduced into 75 cm^2 flasks each carrying 25 ml growth media and cell numbers were quantified in triplicates after 4 and 6 days of incubation. Extracellular Acidification Rate (ECAR) was determined with an Agilent Seahorse XFe96 analyzer (Ryall J G. Methods Mol Biol 2017, 1556:245-253). Cellular ATP pool and cell-membrane porousness were measured using Mitochondrial ToxGlo Assay (Promega Corporation, Madison, Wis.). Oxygen consumption of saponin-permeabilized cells (Hahn D, et al. Am J Physiol Cell Physiol 2019, 317(4):C665-C673) was measured by Oroboros O2k respirometry (Alleman R J, et al. Am J Physiol Heart Circ Physiol 2016, 310(10):H1360-1370; Goswami I, et al. Biophys J 2018, 114(12):2951-2964).
(§1) Restoring (rescuing) the impaired growth and respiration the mutant. Effectiveness of the potential Complex I therapeutic idebenone in restoring the ATP synthesis defects of the mutant HEK293ΔNDUFS2 was evaluated. In this procedure, mutant cells were cultured in media supplemented with 1 μM of idebenone in 96-well plates at 2,000 cells/well. Fresh media (with or without the therapeutic) were added on days 0, 3 and 5. Cellular ATP pool was assessed on day 6 of incubation by Mitochondrial ToxGlo Assay. Mutant cells were also cultured in 6-well plates at 2000 cells/well in medium supplemented 0.5, 1, 5, or 10 μM of idebenone. Fresh media containing the drug was added on days 3, 6 and 9, and the cell counts in wells of triplicates was determined following 10 days incubation. Efficacy of idebenone in improving respiration of permeabilized mutant cells was measured by O2k respirometry as described above with the following modification: subsequent to glutamate+malate injection, idebenone was injected into chambers at 1 μM final concentration. The control groups received DMSO.

mutant HEK293ΔNDUFS2 [2] = assay: ATP synthesis of mutant cells grown with therapeutics, Mitochondrial ToxGlo Assay; conditions: for amount of ATP compared to mutant cells treated with DMSO: day 6, luminescence normalized to DMSO control; for restoration of ATP synthesis defects of the mutant: concentration not given
Protocol: (§2) ATP synthesis and cell-membrane integrity of strains. Potential mitochondrial dysfunction of strains was assessed by using the Mitochondrial ToxGlo Assay (Promega Corporation, Madison, Wis.), according to the procedure described by the manufacturer. This assay is based on the measurements of biomarkers associated with changes in cell membrane integrity and cellular ATP levels. Briefly, the parent and mutant cells grown in flasks were harvested by trypsinization and resuspended in fresh medium. Approximately 10,000 cells/well were added to a 96-well plate and incubated overnight. A working stock of antimycin A, which is a mitochondrial toxin (complex III inhibitor) was prepared at a concentration of 150 μM in a glucose-free DMEM medium (Sigma-Aldrich) supplemented with 10 mM galactose (Sigma-Aldrich). Serial dilutions of the mitochondrial toxin were prepared in a separate 96-well plate (in galactose containing medium). Overnight grown cells were washed with glucose-free galactose containing medium, and fresh (galactose containing medium) was added into wells at 50 μl/well. Fifty μl volumes of the serial dilutions of toxin were transferred from the stock plate to the wells in cell culture plate. The wells carrying the vehicle controls received the medium with no toxin. The plate was incubated at 37° C. for 90 min. Twenty μl volumes of 5× Cytotoxicity Reagent were added to each well, the plate was incubated at 37° C. for further 30 min, and the fluorescence was measured at 475 nmEX/500-550 nmEM, by using a Glomax Discover plate reader (Promega Corporation). The assay plate was equilibrated to room temperature, 100 μl ATP Detection Reagent was added to each well, and luminescence was measured by using the same plate reader.
Restoring (rescuing) the altered/lost phenotypes of the mutant with the use of potential complex I therapeutics. Effectiveness of the potential complex I therapeutics in restoring the metabolic defects of the mutant HEK293ΔNDUFS2 was evaluated. For this purpose, the mutant cells were treated with the therapeutic idebenone or its analog SBT-220 and change in ATP synthesis was examined. In this procedure, the mutant cells were suspended in culture media supplemented with 0, 1, or 10 μM of idebenone, conjugate SBT-220, conjugate SBT-222, or elamipretide, and plated in 96 well plates at 2,000 cells/well. Cells suspended in DMSO served as controls. Fresh media (with or without therapeutics) were added on days 0, 3 and 5. Cellular ATP synthesis was assessed on day 6 of incubation by using the Mitochondrial ToxGlo Assay, as described above. The responses of ATP synthesis in the treatment groups were normalized to that of the control group.
as §1

mutant HEK293ΔNDUFS2 [3] = assay: Cell growth of mutant cultures treated for 10 days (cell counts)
Protocol: as §1

mutant HEK293ΔNDUFS2 [4] = assay: Cell-membrane porousness in presence of respiratory inhibitor, Mitochondrial ToxGlo Assay
Protocol: as §2

parent HEK293 [5] = assay: as above; conditions: Antimycin A added to reaction medium
Protocol: as §2

mutant HEK293ΔNDUFS2 [6] = assay: ATP synthesis in presence of respiratory inhibitor, Mitochondrial ToxGlo Assay; conditions: Antimycin A added to reaction media
Protocol: as §2

parent HEK293 [7] = assay: as above; conditions: Antimycin A added to reaction media, 90 min
Protocol: as §2

[8] = 1 μM final concentration, vs DMSO

Molecule | Complex I respiration ([1]; 1 μM final concentration injected after glutamate+malate, vs DMSO) | Complex II respiration [1, 8] | OXPHOS capacity [1, 8] | maximal respiration [1, 8] | oxygen consumption all along the ETC ([1]; idebenone treatment vs DMSO) | amount of ATP compared to mutant cells treated with DMSO (mutant HEK293ΔNDUFS2 [2]; 1 μM) [folds] | restoration of ATP synthesis / ATP pool of the mutant (mutant HEK293ΔNDUFS2 [2]; 1 μM, long-term treatment (six days)) | improvement of ATP synthesis defects of the mutant (mutant HEK293ΔNDUFS2 [2]; 10 μM) | restoration of ATP synthesis defects of the mutant (mutant HEK293ΔNDUFS2 [2]) | more cells recovered compared to the DMSO control (mutant HEK293ΔNDUFS2 [3]; 0.5 μM, 10 days) [%] | cell proliferation (mutant HEK293ΔNDUFS2 [3]; 0.5 μM, long-term treatment) | growth of the mutant (mutant HEK293ΔNDUFS2 [3]; 1 μM, 10 days) | growth of the mutant (mutant HEK293ΔNDUFS2 [3]; 5 μM, 10 days) | effect on mutant cells in growth test (mutant HEK293ΔNDUFS2 [3]; 10 μM, 10 days) | membrane porousness (mutant HEK293ΔNDUFS2 [4]; Antimycin A added to reaction medium) | cell membrane porousness of the mutant relative to the parent (mutant HEK293ΔNDUFS2 [4]; as a result of antimycin A treatment) | membrane porousness (parent HEK293 [5]) | decline of ATP synthesis in the mutant compared to the parent (mutant HEK293ΔNDUFS2 [6]) | ATP synthesis ability (mutant HEK293ΔNDUFS2 [6]; 90 min) | ATP synthesis ability (parent HEK293 [7])
COC1=C(OC)C(=O)C(CCCCCCCCCCO)=C(C)C1=O [idebenone] | improved significantly | improved significantly | improved significantly | improved significantly | improved oxygen consumption all along the ETC | 2.4 | restored the ATP synthesis of the mutant to some extent; also recorded: significantly greater amount of ATP; also recorded: improved ATP pool | failed to improve | partially restored | 32.1 | enhanced cell proliferation | did not improve growth | did not improve growth | caused cell death |  |  |  |  |  | 
elamipretide |  |  |  |  |  | 2.1 |  |  | partially restored |  |  |  |  |  |  |  |  |  |  | 
Antimycin A |  |  |  |  |  |  |  |  |  |  |  |  |  |  | more porous | up to 4.5 folds | more porous | up to 2.2 folds | declined drastically | declined drastically

From patent US20220299500A1, “NDUFS2 SUBUNIT KNOCKOUT HUMAN CELL LINE” (priority 2019, published 2022)
